The bioavailability is the share of a dose that reaches the circulation, judged against a reference dose that is usually intravenous. Low values mean little systemic uptake, high ones much systemic uptake. One may read the IC50 as the concentration at which inhibition is half-maximal. What is called Papp A→B is how fast a substance crosses the layer from the apical side. By clearance is commonly meant the rate of elimination divided by the concentration. Lower therefore signals inefficient removal. What is called MRT is a mean duration of stay, worked out from the concentration-time curve. The inhibition in vivo is the share of the control response that was lost under treatment.

Experimental findings from ChEMBL document CHEMBL5042510, “Structure-Guided Discovery of Aminoquinazolines as Brain-Penetrant and Selective LRRK2 Inhibitors” (J Med Chem, 2022) are described below.

Series [1] in a line: Oral bioavailability in Wistar Han rat at 5 mg/kg by LC-MS/MS analysis. It counts as ADME, organism-based. The conditions noted are these: in vivo.
Series [2] can be described thus: Unbound brain-to-plasma concentration ratio in rat at 2.5 uM incubated for 4 hrs by equilibrium dialysis method. It counts as ADME, cell-free. To be noted: brain and plasma (unbound), read-out: K(p,uu,brain).
Series [3] has as its target Leucine-rich repeat serine/threonine-protein kinase 2 (Homo sapiens, UniProt Q5S007, G2019S). As to the kind of experiment: Inhibition of recombinant N-terminal GST-fused LRRK2 […] mutant (970 to 2527 residues) (unknown origin) preincubated with enzyme for 15 mins followed by fluorescein-labeled LRRKtide peptide substrate and ATP addition for 90 mins by TR-FRET assay. A general note: TR-FRET usually uses a lanthanide donor and a delayed reading to cut background.

The next series concerns rat Mdr1a (P-gp). As to the kind of experiment: Apparent permeability from apical to basolateral side in rat Mdr1a-transfected pig LLC-PK1 cells at 0.1 to 1 uM measured after 3 hrs by LC/MS/MS analysis. It counts as ADME, cell-based, Sus scrofa. The conditions noted are these: dose 0.1-1 µM.
Series [4] can be described thus: Intrinsic clearance in human hepatocytes at 0.3 uM incubated for 90 mins by LC/MS/MS analysis. It counts as ADME, cell-based, Hepatocyte. To be noted: read-out: CLH.
Series [5] is described as follows: Total plasma clearance in Wistar Han rat at 2 mg/kg, iv by LC-MS/MS analysis. It counts as ADME, organism-based.
In series [6] the target is Voltage-gated inwardly rectifying potassium channel KCNH2 (Homo sapiens, UniProt Q12809). As to the kind of experiment: Inhibition of human ERG by voltage clamp assay. It counts as toxicity.
The target of series [7] is Leucine-rich repeat serine/threonine-protein kinase 2 (Homo sapiens) (UniProt Q5S007). As to the kind of experiment: Ex vivo inhibition of LRRK2 in human PBMC assessed as unbound concentration required for reduction in LRRK2 phosphorylation at Ser935 residue incubated for 90 mins by MSD assay. It counts as cell-based.
A short description of series [8]: MRT in Beagle dog at 1 mg/kg, iv by LC-MS/MS analysis. It counts as ADME, organism-based, Canis lupus familiaris. To be noted: in vivo.
A short description of series [9]: Genotoxicity in CHO-WBL cells incubated for 3 hrs in presence of liver S9 extract by invitro micronucleus test. It counts as toxicity, Cricetulus griseus. To be noted: chinese hamster, s9, 3 h.
Series [10] can be described thus: Thermodynamic solubility of the compound in FaSSIF measured after 24 hrs by reverse phase UPLC analysis. To be noted: read-out: Therm_solubility. It counts as physicochemical.
The nature of series [11]: Toxicity in rat assessed as body weight loss at 400 mg/kg, po qd administered for 4 days. It counts as organism-based. The conditions noted are these: in vivo, 96 h, time 4 day.
The next series concerns CYP1A1. As to the kind of experiment: Toxicity in rat assessed as fold induction of CYP1A1 transcriptional activity in liver at 10 to 75 mg/kg, po bid administered for 4 days relative to control. To be noted: dose 10-75 mg/kg, time 4 day, read-out: FC. It counts as organism-based.
Another series relates to GSTA5. As to the kind of experiment: Toxicity in rat assessed as fold increase in GSTA5 transcriptional activity in liver at 75 mg/kg, po bid administered for 4 days relative to control. It counts as organism-based. The conditions noted are these: time 4 day, read-out: FC.
The nature of series [12]: Toxicity in rat assessed as elevation of PXR gene expression at 10 to 75 mg/kg, po bid administered for 4 days. It counts as organism-based. To be noted: in vivo, 96 h, dose 10-75 mg/kg, time 4 day.
Series [13] can be described thus: In vivo inhibition of LRRK2 in CD rat assessed as reduction in phosphorylation at Ser935 residue in striatum at 3 mg/kg, po measured after 2 hrs by MSD assay. It counts as functional.
Series [14] in a line: In vivo inhibition of LRRK2 in CD rat assessed as reduction in phosphorylation at Ser935 residue in striatum at 30 mg/kg, po measured after 2 hrs by MSD assay. It counts as functional.

The structures appear in SMILES notation. In brackets after ≈: the same amount, converted by molar mass. A value given as a limit tells only on which side of the number the result lay.

Chain of Voltage-gated inwardly rectifying potassium channel KCNH2 (Q12809 whole entry): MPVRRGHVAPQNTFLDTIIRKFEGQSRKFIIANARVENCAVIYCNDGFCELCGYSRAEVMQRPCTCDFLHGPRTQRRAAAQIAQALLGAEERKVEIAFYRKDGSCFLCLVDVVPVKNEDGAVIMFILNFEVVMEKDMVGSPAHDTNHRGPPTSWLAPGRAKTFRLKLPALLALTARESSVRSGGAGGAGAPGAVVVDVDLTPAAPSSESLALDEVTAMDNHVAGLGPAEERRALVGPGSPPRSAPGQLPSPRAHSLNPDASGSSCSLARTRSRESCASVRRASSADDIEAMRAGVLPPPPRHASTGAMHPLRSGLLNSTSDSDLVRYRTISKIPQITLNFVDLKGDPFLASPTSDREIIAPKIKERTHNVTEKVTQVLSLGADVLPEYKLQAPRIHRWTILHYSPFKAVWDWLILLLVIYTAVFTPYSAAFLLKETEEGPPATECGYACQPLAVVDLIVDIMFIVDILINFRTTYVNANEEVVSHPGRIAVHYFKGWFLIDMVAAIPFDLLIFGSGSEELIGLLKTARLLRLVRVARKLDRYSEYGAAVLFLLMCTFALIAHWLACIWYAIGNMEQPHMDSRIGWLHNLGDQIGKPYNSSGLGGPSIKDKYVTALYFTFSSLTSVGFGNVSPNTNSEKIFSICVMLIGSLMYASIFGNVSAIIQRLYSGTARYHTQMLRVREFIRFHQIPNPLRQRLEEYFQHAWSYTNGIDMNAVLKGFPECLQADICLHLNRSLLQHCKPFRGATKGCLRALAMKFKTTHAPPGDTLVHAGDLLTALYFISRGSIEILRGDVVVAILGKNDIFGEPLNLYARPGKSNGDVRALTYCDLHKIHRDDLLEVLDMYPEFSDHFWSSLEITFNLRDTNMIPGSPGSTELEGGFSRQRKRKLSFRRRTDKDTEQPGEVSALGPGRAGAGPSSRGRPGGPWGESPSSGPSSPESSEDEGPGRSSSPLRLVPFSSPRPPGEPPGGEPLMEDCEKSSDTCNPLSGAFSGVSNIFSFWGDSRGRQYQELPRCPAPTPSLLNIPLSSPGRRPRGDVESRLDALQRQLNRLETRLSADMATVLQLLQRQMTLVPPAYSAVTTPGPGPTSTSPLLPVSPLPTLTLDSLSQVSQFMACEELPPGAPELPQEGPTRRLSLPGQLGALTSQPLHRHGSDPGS
Chain of Leucine-rich repeat serine/threonine-protein kinase 2 (Homo sapiens) (Q5S007 whole entry): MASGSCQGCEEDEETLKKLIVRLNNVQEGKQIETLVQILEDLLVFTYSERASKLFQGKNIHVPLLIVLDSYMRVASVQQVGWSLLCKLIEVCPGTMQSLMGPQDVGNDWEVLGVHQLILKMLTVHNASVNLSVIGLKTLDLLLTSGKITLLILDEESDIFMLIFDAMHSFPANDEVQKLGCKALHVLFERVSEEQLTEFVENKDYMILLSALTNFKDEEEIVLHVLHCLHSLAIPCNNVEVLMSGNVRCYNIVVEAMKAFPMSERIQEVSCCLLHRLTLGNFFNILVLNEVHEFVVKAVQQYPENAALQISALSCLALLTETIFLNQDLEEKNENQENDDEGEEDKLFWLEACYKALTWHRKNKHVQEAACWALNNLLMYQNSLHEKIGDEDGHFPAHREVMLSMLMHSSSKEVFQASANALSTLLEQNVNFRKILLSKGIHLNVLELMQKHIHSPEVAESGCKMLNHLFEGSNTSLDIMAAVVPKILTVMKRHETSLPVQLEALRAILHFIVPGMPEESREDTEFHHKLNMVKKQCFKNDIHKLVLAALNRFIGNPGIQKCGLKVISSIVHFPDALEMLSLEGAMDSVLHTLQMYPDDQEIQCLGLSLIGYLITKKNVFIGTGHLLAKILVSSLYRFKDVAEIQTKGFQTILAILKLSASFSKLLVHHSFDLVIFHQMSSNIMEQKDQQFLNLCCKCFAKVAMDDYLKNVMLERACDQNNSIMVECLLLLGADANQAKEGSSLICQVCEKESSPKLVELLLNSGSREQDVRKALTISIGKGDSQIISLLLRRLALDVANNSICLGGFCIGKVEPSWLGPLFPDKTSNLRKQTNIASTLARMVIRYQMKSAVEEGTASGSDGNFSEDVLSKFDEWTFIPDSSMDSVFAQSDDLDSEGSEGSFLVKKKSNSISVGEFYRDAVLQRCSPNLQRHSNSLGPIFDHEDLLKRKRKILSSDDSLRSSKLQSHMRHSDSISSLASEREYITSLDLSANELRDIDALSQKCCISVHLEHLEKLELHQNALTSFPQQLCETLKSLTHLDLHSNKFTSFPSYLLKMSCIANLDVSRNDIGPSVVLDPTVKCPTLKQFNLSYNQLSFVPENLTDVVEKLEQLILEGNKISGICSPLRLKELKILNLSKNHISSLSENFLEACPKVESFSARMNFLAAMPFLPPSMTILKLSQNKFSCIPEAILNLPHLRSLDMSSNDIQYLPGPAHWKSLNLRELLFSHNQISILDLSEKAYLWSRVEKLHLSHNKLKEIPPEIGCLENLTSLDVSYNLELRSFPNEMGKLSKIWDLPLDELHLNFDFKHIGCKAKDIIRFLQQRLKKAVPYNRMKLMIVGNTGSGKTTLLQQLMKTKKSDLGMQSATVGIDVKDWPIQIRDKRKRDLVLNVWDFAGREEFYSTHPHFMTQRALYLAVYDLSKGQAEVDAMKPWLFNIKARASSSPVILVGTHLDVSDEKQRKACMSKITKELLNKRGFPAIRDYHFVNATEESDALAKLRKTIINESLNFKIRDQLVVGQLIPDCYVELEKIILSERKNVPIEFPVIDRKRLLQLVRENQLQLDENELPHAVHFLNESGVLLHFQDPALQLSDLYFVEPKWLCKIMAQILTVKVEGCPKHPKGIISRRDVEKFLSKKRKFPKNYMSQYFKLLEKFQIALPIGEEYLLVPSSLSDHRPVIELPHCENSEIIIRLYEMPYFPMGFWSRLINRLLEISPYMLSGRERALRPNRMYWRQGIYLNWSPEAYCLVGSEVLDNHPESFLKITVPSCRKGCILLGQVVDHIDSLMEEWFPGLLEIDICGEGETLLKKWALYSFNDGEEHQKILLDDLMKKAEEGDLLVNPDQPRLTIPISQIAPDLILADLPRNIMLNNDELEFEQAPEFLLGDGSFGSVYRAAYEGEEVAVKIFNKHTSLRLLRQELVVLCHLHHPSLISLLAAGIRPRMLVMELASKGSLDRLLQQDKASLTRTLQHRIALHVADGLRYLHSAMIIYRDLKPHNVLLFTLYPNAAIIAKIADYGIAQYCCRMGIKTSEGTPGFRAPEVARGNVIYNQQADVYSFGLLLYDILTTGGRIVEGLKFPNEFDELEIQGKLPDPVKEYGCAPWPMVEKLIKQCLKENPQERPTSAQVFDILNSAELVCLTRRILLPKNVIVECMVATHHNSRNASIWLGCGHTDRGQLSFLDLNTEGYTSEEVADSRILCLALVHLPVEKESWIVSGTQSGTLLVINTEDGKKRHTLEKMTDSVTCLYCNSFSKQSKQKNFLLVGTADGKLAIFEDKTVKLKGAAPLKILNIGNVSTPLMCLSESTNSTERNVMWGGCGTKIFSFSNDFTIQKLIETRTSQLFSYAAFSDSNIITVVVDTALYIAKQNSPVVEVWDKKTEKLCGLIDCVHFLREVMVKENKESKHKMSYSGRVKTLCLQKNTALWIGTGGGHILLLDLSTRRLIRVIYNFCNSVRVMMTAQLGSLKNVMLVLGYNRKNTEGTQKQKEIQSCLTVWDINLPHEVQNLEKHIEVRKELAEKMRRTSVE
Chain of Leucine-rich repeat serine/threonine-protein kinase 2 (Q5S007 whole entry G2019S, the tested form may be a part): as the sequence (Q5S007 whole entry) above, with G2019S counted along it

In turn, `O[C@H]1COC[C@H]1N1CC[C@@H](c2cc3nc(Nc4cnn([C@@H]5CC5(F)F)c4Cl)ncc3cc2Cl)[C@H](F)C1` returned a bioavailability in series [1] of 83%. The Kp uu at 4 h, 2.5 µM in series [2] is 0.36. Further, the results for the concentration for half-maximal inhibition (IC50) in series [3] and in series [6] were under 0.0006 µM and 9.7 µM, respectively. In addition, the apparent permeability from apical to basolateral (Papp A→B) at 3 h, up to 1 µM in the series with rat Mdr1a (P-gp) amounted to 30 ×10⁻⁶ cm/s. Also, the CLint scaled at 0.3 µM in series [4] came to 116 mL/min/kg. The same compound showed a clearance in series [5] of 19 mL/min/kg. The fIC50 in [7] was found to be 1.9 nM. The same compound gave a mean residence time MRT in [8] of 24 h. The Activity entry in series [9] was “Non-Toxic”; in series [11] it was “Toxic”; in [12], “Non-Toxic”. Also, the solubility thermodynamic at 24 h in series [10] worked out at 4 µg/mL (≈ 7.36 µM). Moreover, the fold induction at 96 h in the series on CYP1A1 was found to be 3; with GSTA5, 5. Also, the inhibition in vivo at 3 mg/kg in series [13] came out at 32%. For the same compound, the inhibition in vivo at 30 mg/kg in series [14] was found to be 92%.
